Results reported in patent US20260199500A1, “Camptothecin Derivative, Conjugate Thereof, Preparation Method Therefor and Medical Use Thereof” (priority 2023, published 2026).
Like-named read-outs stand apart in the source and are kept apart here.

What was measured:
N87 gastric cancer cells = test: Inhibitory activity of compounds on N87 gastric cancer cells (CellTiter-Glo, 144 h); format: cell-based; details: for IC50 on N87 cells, ratio to DXD (retest): samples retested together, ratio of measured IC50 to DXD
Procedure: (§1) On the day of the experiment, the cells were digested with 0.25% trypsin (Gibco, 25200-072), filtered through a 40 μm sieve, diluted with the corresponding medium to a cell density of 1×10^4 cells/mL, and inoculated into a 96-well white cell culture plate (Beyotime, FCP968), with 100 μL of cells added per well. The culture plate was placed in a 37° C. incubator (Thermo 311) containing 5% C02 and incubated for 24 hours. On the second day, the samples to be tested were prepared as a stock solution at a final concentration of 1M in DMSO (Sigma, D1650), then diluted with the corresponding medium to a final concentration of 200 nM, and subjected to four-fold serial dilutions, resulting in a total of 9 concentrations. 100 μL of the diluted sample was added to each well of the 96-well plate. The plate was placed in a 37° C. incubator containing 5% CO2 and incubated for 144 hours. The cell culture plate was then removed, and 100 μL of the cell viability assay reagent (CellTiter-Glo® Luminescent Cell Viability Assay, Promega, G7571) was added to each well. The reaction was carried out in the dark at room temperature for 5 minutes. Luminescence values were read using a microplate reader (TECAN SPARK), and data were processed using Graphpad Prism 7 software.
(§2) PY—Y is referenced in the document (WO2022170971A1); and PY-A is referenced in the document (WO2021148501A1).

[1] = test system: MDA-MB-468 breast cancer cells; test: Inhibitory activity of compounds on MDA-MB-468 breast cancer cells (CellTiter-Glo); format: cell-based; details: for IC50 on 468 cells, ratio to DXD (retest): samples retested together, ratio of measured IC50 to DXD
Procedure: as §1, §2

H82 (SCLC) cells = test: Inhibition of H82 cells by compounds; format: cell-based; details: PY-X (DXD) set to 1
Procedure: as §1

H1650 (NSCLC) cells = test: Inhibition of H1650 cells by compounds; format: cell-based; details: PY-X (DXD) set to 1
Procedure: as §1

H1437 (NSCLC) cells = test: Inhibition of H1437 cells by compounds; format: cell-based; details: PY-X (DXD) set to 1
Procedure: as §1

SW1573 (NSCLC) cells = test: Inhibition of SW1573 cells by compounds; format: cell-based; details: PY-X (DXD) set to 1
Procedure: as §1

[2] = test system: PANC-1 (Pancreatic) cells; test: Inhibition of PANC-1 cells by compounds; format: cell-based; details: PY-X (DXD) set to 1
Procedure: as §1

Colo-205 (Colon) cells = test: Inhibition of Colo-205 cells by compounds; format: cell-based; details: PY-X (DXD) set to 1
Procedure: as §1

HT-29 (Colon) cells = test: Inhibition of HT-29 cells by compounds; format: cell-based; details: PY-X (DXD) set to 1
Procedure: as §1

A549 (NSCLC) cells = test: Inhibition of A549 cells by compounds; format: cell-based; details: PY-X (DXD) set to 1
Procedure: as §1

[3] = test system: SW1990 (Pancreatic) cells; test: Inhibition of SW1990 cells by compounds; format: cell-based; details: PY-X (DXD) set to 1
Procedure: as §1

DMS53 (SCLC) cells = test: Inhibition of DMS53 cells by compounds; format: cell-based; details: PY-X (DXD) set to 1
Procedure: as §1

[4] = Log D of small molecules (1-octanol / phosphate buffer pH 2.5 and pH 7.4, LC-MS/MS); format: physicochemical
Procedure: (1) Preparation of 100 mM phosphate buffer (PB) solution at pH 2.5 and pH 7.4 respectively: • a. Preparation of a solution of 100 mM H3PO4 in water: 14.7 M H3PO4 was diluted with water to a concentration of 100 mM H3PO4, and the pH was measured to be approximately 1.8. • b. Preparation of 100 mM NaH2PO4: 5.999 g of NaH2PO4 was dissolved in 500 mL of water and the pH was measured to be approximately 4.5. • c. Preparation of 100 mM Na2HPO4: 7.098 g of Na2HPO4 was dissolved in water to a volume of 500 mL and the pH was measured to be approximately 9.4. • d. Preparation of 100 mM PB (pH 2.5): 15 mL of 100 mM H3PO4 was added to a 50 mL tube, and then pH was adjusted to 2.5±0.05 with 100 mM NaH2PO4. • d. Preparation of 100 mM PB (pH 7.4): 15 mL of 100 mM Na2HPO4 was added to a 50 mL tube, and then pH was adjusted to 7.4±0.05 with 100 mM NaH2PO4.
(2) Saturation of PBs (pH 2.5 and pH 7.4) with 1-octanol: 10 mL of 1-octanol was added to 100 mL of 100 mM PBs (pH 2.5 and pH 7.4), and the mixture was shaken vigorously, and then allowed to stand overnight at room temperature for later use.
(3) Saturation of 1-octanol with PBs (pH 2.5 and pH 7.4): 10 mL of 100 mM PBs (pH 2.5 and pH 7.4) was added to 100 mL of 1-octanol, and the mixture was shaken vigorously, and then allowed to stand overnight at room temperature for later use.
2.1) 2 μL of 10 mM DMSO stock solution of the test compound were dispensed into test tubes, in duplicate.
2.2) 149 μL of PB saturated with 1-octanol (pH 2.5 and 7.4) were added to the tubes.
2.3) 149 μL of PB (pH 2.5 and 7.4) saturated with 1-octanol were added to the corresponding tubes.
2.4) Each tube was vigorously mixed for 2 minutes, then shaken at 800 rpm for 1 hour at room temperature.
2.5) The tubes were centrifuged at 4000 rpm for 5 minutes at room temperature.
2.6) Appropriate volumes of the buffer phase and 1-octanol phase samples were aliquoted.
2.7) These samples were diluted and analyzed using LC-MS/MS without running a calibration curve.
2.8) Data analysis: The log D value of each compound was calculated using the following formula: f

H358 (NSCLC) cells = test: Inhibition of H358 cells by compounds; format: cell-based; details: PY-X (DXD) set to 1
Procedure: as §1

H1975 (NSCLC) cells = test: Inhibition of H1975 cells by compounds; format: cell-based; details: PY-X (DXD) set to 1
Procedure: as §1

H23 (NSCLC) cells = test: Inhibition of H23 cells by compounds; format: cell-based; details: PY-X (DXD) set to 1
Procedure: as §1

FADU (HNSCC) cells = test: Inhibition of FADU cells by compounds; format: cell-based; details: PY-X (DXD) set to 1
Procedure: as §1

OVCAR3 (Ovarian) cells = test: Inhibition of OVCAR3 cells by compounds; format: cell-based; details: PY-X (DXD) set to 1
Procedure: as §1

PA-1 (Ovarian) cells = test: Inhibition of PA-1 cells by compounds; format: cell-based; details: PY-X (DXD) set to 1
Procedure: as §1

Row | Compound | IC50 on N87 cells, ratio to DXD (retest) (N87 gastric cancer cells) | IC50 on 468 cells, ratio to DXD (retest) [1] | IC50 in H82 cells, ratio to DXD (H82 (SCLC) cells) | IC50 in H1650 cells, ratio to DXD (H1650 (NSCLC) cells) | IC50 in H1437 cells, ratio to DXD (H1437 (NSCLC) cells) | IC50 in SW1573 cells, ratio to DXD (SW1573 (NSCLC) cells) | IC50 in PANC-1 cells, ratio to DXD [2] | IC50 in Colo-205 cells, ratio to DXD (Colo-205 (Colon) cells) | IC50 in HT-29 cells, ratio to DXD (HT-29 (Colon) cells) | IC50 in A549 cells, ratio to DXD (A549 (NSCLC) cells) | IC50 in SW1990 cells, ratio to DXD [3] | IC50 in DMS53 cells, ratio to DXD (DMS53 (SCLC) cells) | further results
1 | CC[C@@]1(O)C(=O)OCc2c1cc1n(c2=O)Cc2c-1nc1cc(F)c(C)c3c1c2[C@@H](NC(=O)OCCO)CC3 [PY-4Car, 2-hydroxyethyl((1S,9S)-9-ethyl-5-fluoro-9-hydroxy-4-methyl-10,13-dioxy-2,3,9,10,13,15-hexahydro-1H,12H-benzo[de]pyran[3′,4:6,7]indolizino[1,2-b]quinolin-1-yl)carbamate] | 0.3112 | 0.5193 | 0.4523 | 0.4491 | 0.6526 | 0.3187 | 0.4763 | 0.2923 | 0.3312 | 0.4832 | 0.4822 | 0.5151 | logD ([4]; pH 2.5): 2.1; logD ([4]; pH 7.4): 2.09
2 | CC[C@@]1(O)C(=O)OCc2c1cc1n(c2=O)Cc2c-1nc1cc(F)c(C)c3c1c2[C@@H](NC(=O)OCCCCO)CC3 [PY-4Car2, 4-hydroxybutyl((1S,9S)-9-ethyl-5-fluoro-9-hydroxy-4-methyl-10,13-dioxo-2,3,9,10,13,15-hexahydro-1H,12H-benzo[de]pyrano[3′,4′:6,7]indolizino[1,2-b]quinolin-1-yl)carbamate] | 0.5046 | 0.8170 | 0.5803 | 0.7384 | 0.9590 | 0.4766 | 0.4865 | 0.4478 | 0.4854 | 0.5433 | 0.3573 | – | logD ([4]; 1-octanol / phosphate buffer pH 2.5, read-out: Log D2.5 (Oct/buff) Result): 2.44; logD ([4]; 1-octanol / phosphate buffer pH 7.4, read-out: Log D7.4 (Oct/buff) Result): 2.43; solubility in n-octanol compared with PY-4Car, PY-4Car3C and DXD ([4]; different pH values (2.5 and 7.4)): belier solubility in n-octanol
3 | CC[C@@]1(O)C(=O)OCc2c1cc1n(c2=O)Cc2c-1nc1cc(F)c(CN)c3c1c2CCC3 [PY-16, (S)-4-(aminomethyl)-9-ethyl-5-fluoro-9-hydroxy-1,2,3,9,12,15-hexahydro-10H,13H-benzo[de]pyrano[3′,4′:6,7]indolizino[1,2-b]quinolin-10,13-dione] | – | – | 0.3391 | 0.1421 | 0.2768 | 0.2256 | 0.1325 | 0.3082 | 0.1933 | 0.2053 | 0.4346 | 0.5137 | –
4 | CC[C@@]1(O)C(=O)OCc2c1cc1n(c2=O)Cc2c-1nc1cc(F)c(CO)c3c1c2CCC3 [PY-10, (S)-9-ethyl-5-fluoro-9-hydroxy-4-(hydroxymethyl)-1,2,3,9,12,15-hexahydro-10H,13H-benzo[de]pyrano[3′,4′:6,7]indolizino[1,2-b]quinolin-10,13-dione] | – | – | 0.1525 | 0.0456 | 0.1209 | 0.1540 | 0.0915 | 0.1546 | 0.0874 | 0.0792 | 0.2133 | 0.1968 | –
5 | exatecan mesylate [PY-E, reference compound] | – | – | 0.5103 | 0.1570 | 0.2303 | 0.3310 | 0.1086 | 0.2938 | 0.1376 | 0.1645 | 0.3581 | – | IC50 on N87 cells, ratio to DXD (N87 gastric cancer cells; IC50 of PY-X (DXD) set to 1, values are ratios of measured IC50 to DXD, 144 h): 0.4782; IC50 on 468 cells, ratio to DXD ([1]; IC50 of PY-X (DXD) set to 1, values are ratios of measured IC50 to DXD): 0.3546; IC50 in H358 cells, ratio to DXD (H358 (NSCLC) cells): 0.2694; IC50 in H1975 cells, ratio to DXD (H1975 (NSCLC) cells): 0.0963; IC50 in H23 cells, ratio to DXD (H23 (NSCLC) cells): 0.1245; IC50 in FADU cells, ratio to DXD (FADU (HNSCC) cells): 0.4464; IC50 in OVCAR3 cells, ratio to DXD (OVCAR3 (Ovarian) cells): 0.2269; IC50 in PA-1 cells, ratio to DXD (PA-1 (Ovarian) cells): 0.3572
6 | CC[C@@]1(O)C(=O)OCc2c1cc1n(c2=O)Cc2c-1nc1cc(Cl)c(CO)c3c1c2CCC3 [PY-37, (S)-5-chloro-9-ethyl-9-hydroxy-4-(hydroxymethyl)-1,2,3,9,12,15-hexahydro-10 h,13 h-benzo[de]pyrano[3′,4′:6,7]indolizino[1,2-b]quinolin-10,13-dione] | – | – | 1.1563 | 0.7310 | 0.9440 | 0.6712 | 0.3514 | 0.6449 | 0.4700 | 0.4179 | 0.7777 | – | –
